Reference: patent US20020132853A1, “Capsaicin receptor ligands” (priority 2000, published 2002)
pIC50: −log10 of the molar value. Like-named read-outs stand apart in the source and are kept apart here.

Target: T1, human capsaicin receptor (Homo sapiens, UniProt Q8NER1)
T1 construct: expression consrtuct encoding the full length human capsaicin receptor; expressed in transfected cells
Test: Antagonist assay for Capsaicin receptor mediated calcium mobilization
Type: cell-based
Conditions: read-out: EC50 (the source's name)
Experimental: Calcium Mobilization Assay
Cells transfected with expression plasmids (as described in Example 10) and thereby expressing the human capsaicin receptor are seeded and grown to 70-90% confluency in FALCON black-walled, clear-bottomed 96-well plates (#3904, BECTON-DICKINSON, Franklin Lakes, N.J.) . The culture media are emptied from the 96 well plates and FLUO-3 AM calcium sensitive dye (Molecular Probes, Eugene, OR) is added to each well (dye solution: 1 mg FLUO-3 AM, 440 uL DMSO and 440 ul 20% pluronic acid in DMSO, diluted 1:4, 50 ul diluted solution per well). Plates are covered with aluminum foil and incubated at 37° C for 1-2 hours in an environment containing 5% CO2. After the incubation the dye is emptied from the plates, and the cells are washed once with Krebs-Ringer HEPES (KRH) buffer (25 mM HEPES, 5 mM KCl, 0.96 mM NaH2PO4, 1 MM MgSO4, 2 mM CaCl2, 5 mM glucose, 1 mM probenecid, pH 7.4), and resuspended in KRH buffer.
Agonist (e.g., olvanil, capsaicin, or RTX)-induced calcium mobilization is monitored using either FLUOROSKAN ASCENT (Labsystems, Franklin, Mass.) or FLIPR (fluorometric imaging plate reader system, Molecular Devices, Sunnyvale, Calif.) instruments. Similarly, varying concentrations of the antagonists ruthenium red or capsazepine are added to cells concurrently with agonist (e.g., 25-50 nM capsaicin). For agonist-induced calcium responses, data obtained between 30 and 60 seconds after agonist application are used to generate the EC50 values. […] software (Synergy Software, Reading, Pa.) was utilized to fit the data to the equation: […]
to determine the EC50 for the response. In this equation, y is the maximum fluorescence signal, x is the concentration of the agonist or antagonist, a is the Emax, b corresponds to the EC50 or IC50 value, and finally, c is the Hill coefficient.
Assay for Determination of Capsaicin Receptor Antagonist Effects
In order to measure the ability of a test compound to antagonize (inhibit) the response of cells expressing capsaicin receptors to capsaicin or other vanilloid agonist, the EC50 of capsaicin is first determined.
An additional 20 ul of KRH buffer and 1 ul DMSO is added to each well of cells, prepared as described above. 100 ul capsaicin in KRH buffer is automatically transferred by the FLIPR instrument to each well.
Test compounds are dissolved in DMSO, diluted in 20 ul KRH buffer so that the final concentration of test compounds in the assay well is between 1 uM and 5 uM, and added to cells prepared as described above. The 96 well plates containing prepared cells and test compounds are incubated in the dark, at room temperature for 0.5-6 hours. It is important that the incubation not continue beyond 6 hours. Just prior to determining the fluorescence response, 100 ul capsaicin in KRH buffer at twice the EC50 concentration determined from the concentration response curve is automatically added by the FLIPR instrument to each well of the 96 well plate for a final sample volume of 200 ul and a final capsaicin concentration equal to the EC50. The final concentration of test compounds in the assay wells is between 1 uM and 5 uM. […] Antagonists of the capsaicin receptor decrease this response by about 20%, preferably by about 50%, and most preferably by at least 80% as compared to matched control. The concentration of antagonist required to provide a 50% decrease is the EC50 for the antagonist (also referred to as the IC50).

T1 sequence (Q8NER1 whole entry): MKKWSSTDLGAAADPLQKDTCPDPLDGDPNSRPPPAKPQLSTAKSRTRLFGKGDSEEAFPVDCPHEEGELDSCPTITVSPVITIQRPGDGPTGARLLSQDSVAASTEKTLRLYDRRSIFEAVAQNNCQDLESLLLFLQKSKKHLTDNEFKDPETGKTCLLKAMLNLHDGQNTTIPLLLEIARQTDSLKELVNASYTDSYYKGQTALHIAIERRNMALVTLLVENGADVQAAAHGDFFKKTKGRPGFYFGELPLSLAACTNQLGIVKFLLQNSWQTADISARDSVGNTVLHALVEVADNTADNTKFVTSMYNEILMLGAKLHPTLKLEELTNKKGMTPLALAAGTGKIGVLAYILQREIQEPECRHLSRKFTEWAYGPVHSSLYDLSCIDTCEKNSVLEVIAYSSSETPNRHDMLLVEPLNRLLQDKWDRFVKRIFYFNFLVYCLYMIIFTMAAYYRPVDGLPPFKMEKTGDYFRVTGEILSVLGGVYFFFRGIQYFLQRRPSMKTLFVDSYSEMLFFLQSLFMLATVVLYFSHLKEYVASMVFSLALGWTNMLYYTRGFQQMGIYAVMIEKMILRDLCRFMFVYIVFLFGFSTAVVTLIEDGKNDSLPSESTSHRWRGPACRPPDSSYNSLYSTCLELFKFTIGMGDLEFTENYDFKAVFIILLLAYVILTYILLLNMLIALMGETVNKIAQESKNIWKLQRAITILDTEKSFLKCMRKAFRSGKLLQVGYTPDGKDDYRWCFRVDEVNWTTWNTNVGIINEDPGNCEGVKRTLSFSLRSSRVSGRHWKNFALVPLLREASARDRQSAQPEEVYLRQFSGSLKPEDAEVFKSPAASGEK

pIC50 (Table V)	pIC50 (Table III)	Structure (SMILES)	other results
> 6.00		C[C@@H]1CN(c2ncccc2Cl)CCN1C(=O)Nc1ccc(C(=O)c2ccccc2)cc1 [Compound 140, (2R)-N-(4-benzoylphenyl)-4-(3-chloropyridin-2-yl)-2-methylpiperazine-1-carboxamide]	
> 6.00		C[C@@H]1CN(c2ncccc2N(S(C)(=O)=O)S(C)(=O)=O)CCN1C(=O)Nc1ccc(C(C)(C)C)cc1 [Compound 123, (2R)-4-{3-[bis(methylsulfonyl)amino]pyridin-2-yl}-N-(4-tert-butylphenyl)-2-methylpiperazine-1-carboxamide]	
> 6.00		C[C@@H]1CN(c2ncc(N)cc2Cl)CCN1C(=O)Nc1ccc(C(F)(F)F)cc1 [Compound 132, (2R)-4-(5-amino-3-chloropyridin-2-yl)-2-methyl-N-[4-(trifluoromethyl)phenyl]piperazine-1-carboxamide]	
> 6.00		C=C(c1ccc(NC(=O)N2CCN(c3ncccc3F)C[C@H]2C)cc1)C(F)(F)F [Compound 127, (2R)-4-(3-fluoropyridin-2-yl)-2-methyl-N-{4-[1-(trifluoromethyl)vinyl]phenyl}piperazine-1-carboxamide]	
> 6.00		C[C@@H]1CN(c2ncccc2Cl)CCN1C(=O)Nc1ccc(C(C#N)c2ccccc2)cc1 (stereo partly drawn) [Compound 120, (2R)-4-(3-chloropyridin-2-yl)-N-[4-[cyano(phenyl)methyl]phenyl]-2-methylpiperazine-1-carboxamide]	
> 6.00		C=C(c1ccc(NC(=O)N2CCN(c3ncccc3C(F)(F)F)C[C@H]2C)cc1)C(F)(F)F [Compound 126, (2R)-2-methyl-4-[3-(trifluoromethyl)pyridin-2-yl]-N-{4-[1-(trifluoromethyl)vinyl]phenyl}piperazine-1-carboxamide]	
> 6.00		C[C@@H]1CN(c2ncc([N+](=O)[O-])cc2Cl)CCN1C(=O)Nc1ccc(C(F)(F)F)cc1 [Compound 131, (2R)-4-(3-chloro-5-nitrpyridin-2-yl)-2-methyl-N-[4-(trifluoromethyl)phenyl]piperazine-1-carboxamide]	
> 6.00		C[C@@H]1CN(c2ncccc2Cl)CCN1C(=O)Nc1ccc(I)cc1 [Compound 141, (2R)-4-(3-chloropyridin-2-yl)-N-(4-iodophenyl)-2-methylipierazine-1-carboxamide]	
> 6.00		C[C@@H]1CN(c2ncccc2C(F)(F)F)CCN1C(=O)Nc1ccc(Cl)c(C(F)(F)F)c1 [Compound 160, (2R)-N-[4-chloro-3-(trifluoromethyl)phenyl]-2-methyl-4-[3-(trifluoromethyl)pyridin-2-yl]piperazine-1-carboxamide]	

More lines, now with the values behind:

Structure (SMILES)	pIC50 (Table V)	pIC50 (Table III)	other results
O=C(Nc1cccc([N+](=O)[O-])c1)N1CCN(c2ncccc2C(F)(F)F)CC1 [Compound 116, N-(3-nitrophenyl)-4-[3-(trifluoromethyl)pyridin-2-yl]piperazine-1-carboxamide]	> 6.00		
C[C@@H]1CN(c2ncccc2C#N)CCN1C(=O)Nc1ccc(C(C)(C)C)cc1 [Compound 82, (2R)-N-(4-tert-butylphenyl)-4-(3-cyanopyridin-2-yl)-2-methylpiperazine-1-carboxamide]		> 6.00	
C[C@@H]1CN(c2nccc3ccccc23)CCN1C(=O)Nc1ccc(C(F)(F)F)cc1 [Compound 38, (2R)-4-isoquinolin-1-yl-2-methyl-N-[4-(trifluoromethyl)phenyl]piperazine-1-carboxamide]		> 6.00	
CC(C)c1ccc(NC(=O)N2CCN(c3ncccc3C(F)(F)F)CC2C(C)C)cc1 (centres unmarked) [Compound 74, 2-isopropyl-N-(4-isopropylphenyl)-4-[3-(trifluoromethyl)pyridin-2-yl]piperazine-1-carboxamide]		> 6.00	
COCC(C)(C)c1ccc(NC(=O)N2CCN(c3ncccc3Cl)C[C@H]2C)cc1 [Compound 54, (2R)-4-(3-chloropyridin-2-yl)-N-[4-(2-methoxy-1,1-dimethylethyl)phenyl]-2-methylpiperazine-1-carboxamide]		> 6.00	
Cc1cccc(N2CCN(C(=O)Nc3ccc(C(C)(C)C)cc3)[C@H](C)C2)n1 [Compound 86, (2R)-N-(4-tert-butylphenyl)-2-methyl-4-(6-methylpyridin-2-yl)piperazine-1-carboxamide]		> 6.00	
C[C@@H]1CN(c2ncccc2Cl)CCN1C(=S)Nc1ccc(C(F)(F)F)cc1 [Compound 172]			pIC50 (Table VI): > 6.00
C[C@H]1CN(c2ncccc2Cl)CCN1C(=O)Nc1ccc(C(C)(C)C)cc1 [Compound 24, (2S)-N-(4-tert-butylphenyl)-4-(3-chloropyridin-2-yl)-2-methylpiperazine-1-carboxamide]		> 6.00	
C[C@@H]1CN(c2ncccc2Cl)CCN1C(=S)Nc1ccc(C(C)(C)C)cc1 [Compound 168]			pIC50 (Table VI): > 6.00
CC(C)C1CN(c2ncccc2C(F)(F)F)CCN1C(=O)Nc1ccc(C(C)(C)C)cc1 (centres unmarked) [Compound 72, N-(4-tert-butylphenyl)-2-isopropylk-4-[3-(trifluoromethyl)pyridin-2-yl]piperazine-1-carboxamide]		> 6.00	
CCC1CN(c2ncccc2Cl)CCN1C(=O)Nc1ccc(C(C)(C)C)cc1 (centres unmarked) [Compound 58, N-(4-tert-butylphenyl)-4-(3-chloropyridin-2-yl)-2-ethylpiperazine-1-carboxamide]		> 6.00	
CC(C)c1ccc(NC(=O)N2CCN(c3nccnc3Cl)C[C@H]2C)cc1 [Compound 96, (2R)-4-(3-chloropyrazin-2-yl)-N-(4-isopropylphenyl)-2-methylpiperazine-1-carboxamide]			pIC50 (Table IV): > 6.00
C[C@@H]1CN(c2ncccc2C(F)(F)F)CCN1C(=O)Nc1ccc(C2CCCC2)cc1 [Compound 37, (2R)-N-(4-cyclopentylphenyl)-2-methyl-4-[3-(trifluoromethyl)pyridin-2-yl]piperazine-1-carboxamide]		> 6.00	
C[C@@H]1CN(c2ncccc2Cl)CCN1C(=O)NC1CCC(C(C)(C)C)CC1 (stereo partly drawn) [Compound 99, (2R)-N-(4-tert-butylcyclohexyl)-4-(3-chloropyridin-2-yl)-2-methylpiperazine-1-carboxamide]			pIC50 (Table IV): > 6.00
CC(C)(C)c1ccc(NC(=O)N2CCN(c3ncccc3Cl)CC2C(C)(C)C)cc1 (centres unmarked) [Compound 64, 2-tert-butyl-N-(4-tert-butylphenyl)-4-(3-chloropyridin-2-yl)piperazine-1-carboxamide]		> 6.00	
CC(C)c1ccc(NC(=O)N2CCN(c3nccc4ccccc34)C[C@H]2C)cc1 [Compound 40, (2R)-N-(4-isopropylphenyl)-4-isoquinolin-1-yl-2-methylpiperazine-1-carboxamide]		> 6.00	
C[C@@H]1CN(c2ncccc2N(C)C)CCN1C(=O)Nc1ccc(C(F)(F)F)cc1 [Compound 44]		> 6.00	
C[C@@H]1CN(c2ncccc2Cl)CCN1C(=O)Nc1ccc(C(F)(F)F)cc1 [Compound 20, (2R)-4-(3-chloropyridin-2-yl)-2-methyl-N-[4-(trifluoromethyl)phenyl]piperazine-1-carboxamide]		> 6.00	
CC(C)c1ccc(NC(=O)N2CCN(c3ncccc3F)C[C@H]2C)cc1 [Compound 77, (2R)-4-(3-fluoropyridin-2-yl)-N-(4-isopropylphenyl)-2-methylpiperazine-1-carboxamide]		> 6.00	
C[C@@H]1CN(c2ncccc2Cl)CCN1C(=O)Nc1ccc(C(C)(C)C#N)cc1 [Compound 56, (2R)-4-(3-chloropyridin-2-yl)-N-[4-(1-cyano-1-methylethyl)phenyl]-2-methylpiperazine-1-carboxamide]		> 6.00	
